Data from the supplement of paper PMC10307832.

Experiments:
Assay in all cases: relative viability (nuclei count vs DMSO), 5 days (fraction); higher = more cells survive
GSK-J4 + AZD7762 = compound: CCOC(=O)CCNc1cc(N2CCc3ccccc3CC2)nc(-c2ccccn2)n1 [GSK-J4] + NC(=O)Nc1cc(-c2cccc(F)c2)sc1C(=O)N[C@H]1CCCNC1 [AZD7762] (partner 0.2 µM)
Procedure, shortened: (§1)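 One day after seeding in 1536-well plates, lung cancer cell lines were dosed by pin tool. Dosing was either single-drug or a fixed anchor-drug dose plus five library-drug doses (not always all listed) in √10 steps. After 5 days, nuclei were stained in one fix-and-stain step and counted on 4× images, and relative viability is the nuclei count of treated wells over that of vehicle wells, given as the median of duplicate plates.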

GSK-J4 + Trametinib = compound: CCOC(=O)CCNc1cc(N2CCc3ccccc3CC2)nc(-c2ccccn2)n1 [GSK-J4] + CC(=O)Nc1cccc(-n2c(=O)n(C3CC3)c(=O)c3c(Nc4ccc(I)cc4F)n(C)c(=O)c(C)c32)c1 [Trametinib] (partner 0.02 µM)
Procedure, shortened: as §1

GSK-J4 + Pictilisib = compound: CCOC(=O)CCNc1cc(N2CCc3ccccc3CC2)nc(-c2ccccn2)n1 [GSK-J4] + CS(=O)(=O)N1CCN(Cc2cc3nc(-c4cccc5[nH]ncc45)nc(N4CCOCC4)c3s2)CC1 [Pictilisib] (partner 1 µM)
Procedure, shortened: as §1

AZ3146 + Phenformin = compound: CN1CCC(CC1)OC2=CC(=C(C=C2)NC3=NC=C4C(=N3)N(C(=O)N4C)C5CCCC5)OC [AZ3146] + N=C(N)NC(=N)NCCc1ccccc1 [Phenformin] (partner 250 µM)
Procedure, shortened: as §1

Row | Cell Line | relative viability (GSK-J4 + AZD7762; first compound 0.5 µM) | relative viability (GSK-J4 + AZD7762; first compound 1.581 µM) | relative viability (GSK-J4 + AZD7762; first compound 5 µM) | relative viability (GSK-J4 + AZD7762; first compound 15.81 µM) | relative viability (GSK-J4 + AZD7762; first compound 50 µM) | relative viability (GSK-J4 + Trametinib; first compound 0.5 µM) | relative viability (GSK-J4 + Trametinib; first compound 1.581 µM) | relative viability (GSK-J4 + Trametinib; first compound 5 µM) | relative viability (GSK-J4 + Trametinib; first compound 15.81 µM) | relative viability (GSK-J4 + Trametinib; first compound 50 µM) | relative viability (GSK-J4 + Pictilisib; first compound 0.5 µM) | relative viability (GSK-J4 + Pictilisib; first compound 1.581 µM) | relative viability (GSK-J4 + Pictilisib; first compound 15.81 µM) | relative viability (GSK-J4 + Pictilisib; first compound 50 µM) | relative viability (AZ3146 + Phenformin; first compound 0.08 µM) | relative viability (AZ3146 + Phenformin; first compound 0.253 µM) | relative viability (AZ3146 + Phenformin; first compound 0.8 µM) | relative viability (AZ3146 + Phenformin; first compound 2.53 µM) | relative viability (AZ3146 + Phenformin; first compound 8 µM) | relative viability (GSK-J4 + Pictilisib; first compound 5 µM)
1 | NCI-H838 | 0.971 | 0.681 | 0.76 | 0.874 | 0.789 | 0.566 | 0.455 | 0.223 | 0.436 | 0.332 | 0.624 | 0.407 | 0.467 | 0.433 | 0.581 | 0.554 | 0.556 | 0.517 | 0.229 | –
2 | HCC-366 | 0.325 | 0.258 | – | 0.226 | 0.312 | 0.354 | 0.319 | – | 0.234 | 0.21 | 0.125 | – | 0.181 | 0.122 | 0.58 | 0.544 | 0.607 | 0.601 | 0.587 | 0.137
3 | NCI-H1651 | 0.4 | 0.468 | 0.466 | 0.406 | 0.38 | 0.761 | 0.785 | 0.898 | 0.79 | 0.772 | 0.578 | 0.416 | 0.639 | 0.389 | 0.31 | 0.316 | 0.345 | 0.34 | 0.313 | 0.668
4 | LOU-NH91 | 0.773 | 0.734 | 0.561 | 0.703 | 0.74 | 0.816 | 0.427 | 0.638 | 0.718 | 0.803 | 0.596 | 0.508 | 0.532 | 0.518 | 0.736 | 0.565 | 0.768 | 0.761 | 0.76 | 0.542
5 | H3255 | 0.827 | 0.791 | 0.727 | 0.791 | 0.656 | 0.656 | – | 0.53 | 0.48 | 0.541 | 0.415 | 0.414 | 0.412 | 0.424 | 0.352 | 0.419 | 0.313 | 0.377 | 0.338 | 0.498
